Source: the OligoGym collection
After the bases stand the sugars from the 5' end (letter, count) and the backbone: PS all phosphorothioate, else s phosphorothioate and o phosphodiester by linkage. Methylation of C is not given here. e = 2'-O-(2-methoxyethyl) (MOE); k = constrained ethyl (cEt); d = 2'-deoxy (DNA); m = 2'-O-methyl

Biological target: HSD17B13
Conditions: ASO, HepaRG

Row | Sequence | target mRNA inhibition (1 µM) [%] | further results
1 | CCTTATGATAATTTGG (sugars k3 d10 k3, PS) | 29 | –
2 | CCTTGAATAGCAAGCC (sugars k3 d10 k3, PS) | 61 | –
3 | CGAAACTATTCATATC (sugars k3 d10 k3, PS) | 66 | –
4 | CGAATTTCTTCAAAGA (sugars k3 d10 k3, PS) | 55 | –
5 | CGACTCCAAGTAGGAG (sugars k3 d10 k3, PS) | 10 | –
6 | CGATCCTATATACATC (sugars kkdddddddddkekek, PS) | 29 | –
7 | CGATGGAAGAAGTGCT (sugars k3 d10 k3, PS) | 3 | –
8 | CGCATGCGCAGTGACG (sugars k3 d10 k3, PS) | 46 | –
9 | CGGCACTCAGCTGCAG (sugars k3 d10 k3, PS) | 55 | –
10 | CGGCTGGATATACTGT (sugars k3 d10 k3, PS) | 35 | –
11 | CGGTCACCTTTCATAA (sugars k3 d1 m1 d8 k3, PS) | 42 | –
12 | CGGTCACCTTTCATAA (sugars k3 d9 k3 e1, PS) | 67 | –
13 | CGTGGCCGCACACTGA (sugars k3 d10 k3, PS) | 42 | –
14 | CGTTTAAATCAGAGCA (sugars k3 d10 k3, PS) | 54 | –
15 | CGTTTTGGGCTAATGA (sugars k3 d9 k3 e1, PS) | 52 | –
16 | CTAAAACTGAAGGTCT (sugars k3 d10 k3, PS) | 40 | –
17 | CTAAAATTGTCTAAAC (sugars k3 d9 k3 e1, PS) | 7 | –
18 | CTAAACATCTCTGGGA (sugars kkdddddddddkekek, PS) | 29 | –
19 | CTAAAGGTTTCTGTTG (sugars k3 d10 k3, PS) | 34 | –
20 | CTAAATTTCAGTACCC (sugars k3 d10 k3, PS) | 33 | –
21 | CTACACTAATATTGAG (sugars k3 d1 m1 d8 k3, PS) | 29 | –
22 | CTAGAACACTTGCCTC (sugars k3 d10 k3, PS) | 25 | –

Row | Sequence | target mRNA inhibition (1 µM) [%] | further results
23 | CTAGGAGATATAACAT (sugars k3 d10 k3, PS) | 40 | –
24 | CTAGGATGATGTTCAT (sugars k3 d10 k3, PS) | 47 | –
25 | CTAGGATGTTGACCTC (sugars k3 d10 k3, PS) | 0 | –
26 | CTAGGGAAATCTTTCA (sugars kkdddddddddkekek, PS) | 46 | –
27 | CTAGGGAGGAGGTACT (sugars k3 d10 k3, PS) | 29 | –
28 | CTAGTTACAAACCACC (sugars k3 d10 k3, PS) | 43 | –
29 | CTAGTTTTCGGCACTC (sugars k3 d10 k3, PS) | 33 | –
30 | CTATAACTGGAAGGAG (sugars k3 d10 k3, PS) | 43 | –
31 | CTATATAAATTCTGAC (sugars k3 d10 k3, PS) | 0 | –
32 | CTATATACATCCAAGT (sugars k3 d10 k3, PS) | 6 | –
33 | CTATGCAAGCCTTCAC (sugars k3 d10 k3, PS) | 19 | –
34 | CTATTAGTTGGCCTGC (sugars k3 d10 k3, PS) | 32 | –
35 | CTCAAAGCCTGTTGGA (sugars k3 d10 k3, PS) | 10 | –
36 | CTCAAATAGCCTTTTG (sugars k3 d10 k3, PS) | 64 | –
37 | CTCAAGGAGTACTTCA (sugars k3 d10 k3, PS) | 82 | target mRNA inhibition (0.02 µM): 2%; target mRNA inhibition (0.078 µM): 2%; target mRNA inhibition (0.313 µM): 30%; target mRNA inhibition (1.25 µM): 78%; target mRNA inhibition (5 µM): 95%
38 | CTCAGAGTTCAGGCAA (sugars k3 d10 k3, PS) | 67 | –
39 | CTCAGGCTGTAAGAGT (sugars k3 d10 k3, PS) | 21 | –
40 | CTCCAAGTAGGAGTAG (sugars k3 d10 k3, PS) | 5 | –
41 | CTCCAATACAGGCCAT (sugars k3 d10 k3, PS) | 20 | –
42 | CTCCATAATAATAGCT (sugars k3 d10 k3, PS) | 59 | –
43 | CTCCGTTATAAGTTTC (sugars k3 d10 k3, PS) | 59 | –
